{"source": "patent US5373014A", "about": "“Rapamycin oximes” (American Home Products Corporation, priority 1993, dated 1994)", "key": {"[1]": {"assay": "stability under physiological conditions (degradative hydrolysis in phosphate buffer)", "type": "physicochemical", "protocol": "The table below provides the […] in 0.1M phosphate buffer (pH 7.4) at 37° C."}, "[2]": {"test_system": "cells from the thymus of normal BALB/c mice (lymphocyte proliferation)", "assay": "comitogen-induced thymocyte proliferation procedure (LAF)", "type": "cell-based", "details": "read-out: LAF IC50", "protocol": "(§1) Immunosuppressive activity for representative compounds of this invention was evaluated in an in vitro standard pharmacological test procedure to measure lymphocyte proliferation (LAF) and in an in vivo standard pharmacological test procedure which evaluated the survival time of a pinch skin graft.\nBriefly, cells from the thymus of normal BALB/c mice are cultured for 72 hours with PHA and IL-1 and pulsed with tritiated thymidine during the last six hours. […] Cells are harvested and incorporated radioactivity is determined. Inhibition of lymphoproliferation is assessed as percent change in counts per minute from nondrug treated controls. For each compound evaluated, rapamycin was also evaluated for the purpose of comparison. An IC50 was obtained for each test compound as well as for rapamycin. […] The results obtained are provided as an IC50."}, "[3]": {"test_system": "pinch skin graft from male BALB/c donors transplanted to male C3 H(H-2K) recipients", "assay": "survival time of pinch skin graft (allograft)", "type": "in vivo, male C3 H(H-2K) recipients (mice)", "details": "4 mg/kg, intraperitoneally or orally; untreated controls rejected within 6-7 days", "protocol": "as §1\nRepresentative compounds of this invention were also evaluated in an in vivo test procedure designed to determine the survival time of pinch skin graft from male BALB/c donors transplanted to male C3 H(H-2K) recipients. The method is adapted from Billingham R. E. and Medawar P. B., J. Exp. Biol. 28:385-402, (1951 ). Briefly, a pinch skin graft from the donor was grafted on the dorsum of the recipient as a allograft, and an isograft was used as control in the same region. The recipients were treated with either varying concentrations of test compounds intraperitoneally or orally. Rapamycin was used as a test control. Untreated recipients serve as rejection control. The graft was monitored daily and observations were recorded until the graft became dry and formed a blackened scab. This was considered as the rejection day. The mean graft survival time (number of days±S.D.) of the drug treatment group was compared with the control group. […] Results are expressed as the mean survival time in days. Untreated (control) pinch skin grafts are usually rejected within 6-7 days. […]"}, "[4]": {"details": "72 h culture with PHA and IL-1, tritiated thymidine during last six hours"}, "[5]": {"details": "Mus musculus, Lymphocyte, 72 h culture with PHA and IL-1, tritiated thymidine during last six hours"}}, "note": "Values joined by “and” are separate entries in the source; they are usually repeats but may differ in a detail not shown here. Identical values can stand only once. Like-named read-outs stand apart in the source and are kept apart here.", "data": [{"smiles": "CO[C@H]1C[C@@H]2CC[C@@H](C)[C@@](O)(O2)C(=O)C(=O)N2CCCC[C@H]2C(=O)O[C@H]([C@H](C)C[C@@H]2CC[C@@H](OC(=O)CC[C@H](NC(=O)OC(C)(C)C)C(=O)OC(C)(C)C)[C@H](OC)C2)CC(=O)[C@H](C)/C=C(\\C)[C@@H](O)[C@@H](OC)C(=O)[C@H](C)C[C@H](C)/C=C/C=C/C=C/1C", "note": "[rapamycin 42-ester with (S)-5-tertbutoxy-4-tertbutoxycarbonylamino-5-oxo-pentanoic acid, reference compound]", "values": [{"measurement": "half-life", "setting": "[1]; 0.1m phosphate buffer, pH 7.4", "value": 24, "unit": "h"}]}, {"smiles": "CO/N=C1\\C[C@@H]([C@H](C)C[C@@H]2CC[C@@H](OC(=O)Oc3ccc([N+](=O)[O-])cc3)[C@H](OC)C2)OC(=O)[C@@H]2CCCCN2C(=O)C(=O)[C@]2(O)O[C@@H](CC[C@H]2C)C[C@H](OC)/C(C)=C/C=C/C=C/[C@@H](C)C[C@@H](C)C(=O)[C@H](OC)[C@H](O)/C(C)=C/[C@H]1C", "note": "[Example 9, Rapamycin (E)-27-(O-methoxime), 42-ester with (4-nitrophenoxy)carbonic acid]", "values": [{"measurement": "IC50", "setting": "[2]; [4]", "value": 47, "unit": "nM"}, {"measurement": "IC50", "setting": "[2]; [5]", "value": 77, "unit": "nM"}]}, {"smiles": "CO/N=C1/C[C@@H]([C@H](C)C[C@@H]2CC[C@@H](OC(=O)CC[C@H](NC(=O)OC(C)(C)C)C(=O)OC(C)(C)C)[C@H](OC)C2)OC(=O)[C@@H]2CCCCN2C(=O)C(=O)[C@]2(O)O[C@@H](CC[C@H]2C)C[C@H](OC)/C(C)=C/C=C/C=C/[C@@H](C)C[C@@H](C)C(=O)[C@H](OC)[C@H](O)/C(C)=C/[C@H]1C", "note": "[Example 10, Rapamycin (Z)-27-(O-methoxime), 42-ester with (S)-5-tertbutoxy-4-tertbutoxycarbonylamino-5-oxo-pentanoic acid]", "values": [{"measurement": "IC50", "setting": "[2]; [5]", "value": 4.1, "unit": "nM"}, {"measurement": "Skin Graft mean survival time (days ± SD)", "setting": "[3]", "value": "10.0 ± 0.2 days and 11.2 ± 0.8 days"}, {"measurement": "half-life", "setting": "[1]; 0.1m phosphate buffer, pH 7.4", "value": 264, "unit": "h"}, {"measurement": "stability toward degradation compared with rapamycin or the corresponding oxime or ester alone", "setting": "[1]; pH 7.4", "value": "significantly more stable toward degradation than rapamycin, or the corresponding oxime or ester alone"}]}, {"smiles": "CO[C@H]1C[C@@H]2CC[C@@H](C)[C@@](O)(O2)C(=O)C(=O)N2CCCC[C@H]2C(=O)O[C@H]([C@H](C)C[C@@H]2CC[C@@H](O)[C@H](OC)C2)CC(=O)[C@H](C)/C=C(\\C)[C@@H](O)[C@@H](OC)C(=O)[C@H](C)C[C@H](C)/C=C/C=C/C=C/1C", "note": "[Rapamycin]", "values": [{"measurement": "IC50", "setting": "[2]; Mus musculus, Lymphocyte", "value": "0.4 to 5.1", "unit": "nM"}, {"measurement": "Skin Graft mean survival time (days ± SD)", "setting": "[3]", "value": "12.0 ± 1.7", "unit": "days"}, {"measurement": "half-life", "setting": "[1]; 0.1M phosphate buffer (pH 7.4) at 37° C., read-out: Half Life (converted)", "value": 13, "unit": "h"}]}, {"smiles": "CO/N=C1\\C[C@@H]([C@H](C)C[C@@H]2CC[C@@H](OC(=O)CC[C@H](NC(=O)OC(C)(C)C)C(=O)OC(C)(C)C)[C@H](OC)C2)OC(=O)[C@@H]2CCCCN2C(=O)C(=O)[C@]2(O)O[C@@H](CC[C@H]2C)C[C@H](OC)/C(C)=C/C=C/C=C/[C@@H](C)C[C@@H](C)C(=O)[C@H](OC)[C@H](O)/C(C)=C/[C@H]1C", "note": "[Example 11, Rapamycin (E)-27-(O-methoxime), 42-ester with (S)-5-tertbutoxy-4-tertbutoxycarbonylamino-5-oxo-pentanoic acid]", "values": [{"measurement": "IC50", "setting": "[2]; [4]", "value": 321, "unit": "nM"}, {"measurement": "IC50", "setting": "[2]; [5]", "value": 372, "unit": "nM"}]}, {"smiles": "CO/N=C1\\C[C@@H]([C@H](C)C[C@@H]2CC[C@@H](O)[C@H](OC)C2)OC(=O)[C@@H]2CCCCN2C(=O)C(=O)[C@]2(O)O[C@@H](CC[C@H]2C)C[C@H](OC)/C(C)=C/C=C/C=C/[C@@H](C)C[C@@H](C)C(=O)[C@H](OC)[C@H](O)/C(C)=C/[C@H]1C", "note": "[Rapamycin (E)-27-(O-methoxime), rapamycin (E)-27-(O-methoxime)]", "values": [{"measurement": "half-life", "setting": "[1]; 0.1m phosphate buffer, pH 7.4", "value": 59, "unit": "h"}]}, {"smiles": "CO/N=C1/C[C@@H]([C@H](C)C[C@@H]2CC[C@@H](OC(=O)COCC(=O)OCc3ccccc3)[C@H](OC)C2)OC(=O)[C@@H]2CCCCN2C(=O)C(=O)[C@]2(O)O[C@@H](CC[C@H]2C)C[C@H](OC)/C(C)=C/C=C/C=C/[C@@H](C)C[C@@H](C)C(=O)[C@H](OC)[C@H](O)/C(C)=C/[C@H]1C", "note": "[Example 8, Rapamycin (Z)-27-(O-methoxime), 42-ester with (5-benzyloxycarbonylmethoxy) acetic acid]", "values": [{"measurement": "IC50", "setting": "[2]; [5]", "value": 421, "unit": "nM"}]}, {"smiles": "CO[C@H]1C[C@@H]2CC[C@@H](C)[C@@](O)(O2)C(=O)C(=O)N2CCCC[C@H]2C(=O)O[C@H]([C@H](C)C[C@@H]2CC[C@@H](OC(=O)CC[C@H](NC(=O)OC(C)(C)C)C(=O)OC(C)(C)C)[C@H](OC)C2)C/C(=N/OCC#N)[C@H](C)/C=C(\\C)[C@@H](O)[C@@H](OC)C(=O)[C@H](C)C[C@H](C)/C=C/C=C/C=C/1C", "note": "[Example 3, Rapamycin (Z)-27-O-(cyanomethyl)-oxime, 42-ester with N-(tert-butoxycarbonyl)-α-O-(tert-butyl)-L-glutamic Acid]", "values": [{"measurement": "IC50", "setting": "[2]; [5]", "value": 432, "unit": "nM"}]}, {"smiles": "CO/N=C1/C[C@@H]([C@H](C)C[C@@H]2CC[C@@H](OC(=O)CN(C)C)[C@H](OC)C2)OC(=O)[C@@H]2CCCCN2C(=O)C(=O)[C@]2(O)O[C@@H](CC[C@H]2C)C[C@H](OC)/C(C)=C/C=C/C=C/[C@@H](C)C[C@@H](C)C(=O)[C@H](OC)[C@H](O)/C(C)=C/[C@H]1C", "note": "[Example 7, Rapamycin (Z)-27-(O-methoxime), 42-ester with 2-N,N-dimethylglycine]", "values": [{"measurement": "IC50", "setting": "[2]; [5]", "value": 291, "unit": "nM"}]}, {"smiles": "CO/N=C1/C[C@@H]([C@H](C)C[C@@H]2CC[C@@H](O)[C@H](OC)C2)OC(=O)[C@@H]2CCCCN2C(=O)C(=O)[C@]2(O)O[C@@H](CC[C@H]2C)C[C@H](OC)/C(C)=C/C=C/C=C/[C@@H](C)C[C@@H](C)C(=O)[C@H](OC)[C@H](O)/C(C)=C/[C@H]1C", "note": "[Rapamycin (Z)-27-(O-methoxime), rapamycin (Z)-27-(O-methoxime)]", "values": [{"measurement": "half-life", "setting": "[1]; 0.1m phosphate buffer, pH 7.4", "value": 156, "unit": "h"}]}]}
